pEC50: −log10 of the molar value.
How the values were obtained:
[1] = organism: Homo sapiens; assay: Selectivity ratio of EC50 for human mGluR4 to EC50 for human mGluR1
[2] = biological target: T1, Metabotropic glutamate receptor 4 (Homo sapiens, UniProt Q14833); assay: Positive allosteric modulation of human mGluR4 by calcium mobilization assay; assay type: functional
[3] = biological target: T1, Metabotropic glutamate receptor 4; assay: Positive allosteric modulation of human mGluR4 by calcium mobilization assay relative to PHCCC; assay type: functional
[4] = biological target: T2, Metabotropic glutamate receptor 1 (Homo sapiens, UniProt Q13255); assay: Positive allosteric modulation of human mGluR1 by calcium mobilization assay relative to control; assay type: functional
Target sequence in this assay (Q13255 19-1194 limits assumed): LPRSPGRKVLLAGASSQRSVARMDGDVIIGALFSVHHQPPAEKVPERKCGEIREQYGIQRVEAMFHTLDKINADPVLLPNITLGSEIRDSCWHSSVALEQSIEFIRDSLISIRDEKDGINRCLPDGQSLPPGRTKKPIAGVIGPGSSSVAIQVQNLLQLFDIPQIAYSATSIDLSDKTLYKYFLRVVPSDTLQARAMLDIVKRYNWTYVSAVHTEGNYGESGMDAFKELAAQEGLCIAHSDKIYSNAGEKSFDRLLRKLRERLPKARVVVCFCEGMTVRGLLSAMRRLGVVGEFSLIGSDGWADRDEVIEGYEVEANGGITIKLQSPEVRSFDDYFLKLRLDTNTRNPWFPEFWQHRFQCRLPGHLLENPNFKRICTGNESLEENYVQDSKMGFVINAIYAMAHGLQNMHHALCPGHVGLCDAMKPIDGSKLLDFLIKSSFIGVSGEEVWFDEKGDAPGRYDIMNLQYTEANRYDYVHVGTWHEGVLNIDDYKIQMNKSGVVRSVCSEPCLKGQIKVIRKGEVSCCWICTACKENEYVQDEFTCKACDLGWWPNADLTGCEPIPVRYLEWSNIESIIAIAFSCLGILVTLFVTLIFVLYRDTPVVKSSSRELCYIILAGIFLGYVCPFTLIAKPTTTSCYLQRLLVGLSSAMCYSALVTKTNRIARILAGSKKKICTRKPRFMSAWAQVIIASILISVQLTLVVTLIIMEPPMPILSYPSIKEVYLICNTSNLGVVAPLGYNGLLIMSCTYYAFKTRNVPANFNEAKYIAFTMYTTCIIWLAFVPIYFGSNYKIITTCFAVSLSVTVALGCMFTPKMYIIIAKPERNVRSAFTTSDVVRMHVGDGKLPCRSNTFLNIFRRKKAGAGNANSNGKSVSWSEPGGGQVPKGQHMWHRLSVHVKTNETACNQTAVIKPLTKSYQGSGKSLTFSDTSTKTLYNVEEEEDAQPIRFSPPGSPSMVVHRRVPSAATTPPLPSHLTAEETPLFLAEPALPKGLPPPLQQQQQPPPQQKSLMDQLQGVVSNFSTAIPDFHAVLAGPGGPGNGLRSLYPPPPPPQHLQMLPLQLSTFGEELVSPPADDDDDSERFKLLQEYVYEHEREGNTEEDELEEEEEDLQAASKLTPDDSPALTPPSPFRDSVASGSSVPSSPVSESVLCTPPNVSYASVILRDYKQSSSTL

[5] = biological target: T2, Metabotropic glutamate receptor 1; assay: Positive allosteric modulation of human mGluR1 by calcium mobilization assay; assay type: functional
Target sequence in this assay (Q13255 whole entry): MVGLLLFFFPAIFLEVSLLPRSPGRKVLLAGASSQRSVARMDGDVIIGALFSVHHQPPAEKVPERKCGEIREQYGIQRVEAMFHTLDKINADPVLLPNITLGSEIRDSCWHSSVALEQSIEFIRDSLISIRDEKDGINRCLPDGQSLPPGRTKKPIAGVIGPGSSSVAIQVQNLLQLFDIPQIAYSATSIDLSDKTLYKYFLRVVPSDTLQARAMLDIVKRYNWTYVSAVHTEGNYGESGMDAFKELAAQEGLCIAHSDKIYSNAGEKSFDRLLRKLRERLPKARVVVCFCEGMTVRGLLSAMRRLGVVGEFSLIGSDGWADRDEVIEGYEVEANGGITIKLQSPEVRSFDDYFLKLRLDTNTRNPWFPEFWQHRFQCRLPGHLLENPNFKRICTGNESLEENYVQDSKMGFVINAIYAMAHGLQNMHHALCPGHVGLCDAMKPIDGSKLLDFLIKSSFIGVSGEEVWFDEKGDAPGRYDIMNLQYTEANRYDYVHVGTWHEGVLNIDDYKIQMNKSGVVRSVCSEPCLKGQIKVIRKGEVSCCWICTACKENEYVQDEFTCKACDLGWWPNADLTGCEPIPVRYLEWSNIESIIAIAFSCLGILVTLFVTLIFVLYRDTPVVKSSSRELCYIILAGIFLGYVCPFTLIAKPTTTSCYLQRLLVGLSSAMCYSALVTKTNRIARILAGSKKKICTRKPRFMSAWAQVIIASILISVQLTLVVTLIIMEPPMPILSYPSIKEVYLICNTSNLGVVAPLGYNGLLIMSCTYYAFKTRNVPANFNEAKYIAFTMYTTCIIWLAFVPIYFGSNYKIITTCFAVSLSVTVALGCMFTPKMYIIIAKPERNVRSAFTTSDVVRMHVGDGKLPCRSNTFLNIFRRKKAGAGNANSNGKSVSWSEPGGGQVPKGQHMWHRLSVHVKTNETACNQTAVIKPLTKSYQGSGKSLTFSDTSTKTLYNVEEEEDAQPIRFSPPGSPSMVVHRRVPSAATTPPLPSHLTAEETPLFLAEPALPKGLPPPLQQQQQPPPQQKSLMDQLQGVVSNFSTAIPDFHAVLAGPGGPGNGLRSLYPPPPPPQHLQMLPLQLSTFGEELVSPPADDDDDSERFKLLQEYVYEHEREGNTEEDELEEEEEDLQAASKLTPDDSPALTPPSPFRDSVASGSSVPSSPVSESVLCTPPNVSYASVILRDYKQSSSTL

[6] = tested on: Plasma; assay: Fraction unbound in human plasma; assay type: ADME, cell-free
[7] = tested on: Rattus norvegicus; assay: Ratio of drug level in plasma to brain in rat at 0.2 mg/kg after 15 mins by cassette study; details: in vivo, 0.25 h
[8] = tested on: Plasma; assay: Fraction unbound in rat plasma; assay type: ADME, cell-free
[9] = tested on: Brain; assay: Fraction unbound in rat brain; assay type: ADME, tissue-based

T1 sequence (Q14833 whole entry): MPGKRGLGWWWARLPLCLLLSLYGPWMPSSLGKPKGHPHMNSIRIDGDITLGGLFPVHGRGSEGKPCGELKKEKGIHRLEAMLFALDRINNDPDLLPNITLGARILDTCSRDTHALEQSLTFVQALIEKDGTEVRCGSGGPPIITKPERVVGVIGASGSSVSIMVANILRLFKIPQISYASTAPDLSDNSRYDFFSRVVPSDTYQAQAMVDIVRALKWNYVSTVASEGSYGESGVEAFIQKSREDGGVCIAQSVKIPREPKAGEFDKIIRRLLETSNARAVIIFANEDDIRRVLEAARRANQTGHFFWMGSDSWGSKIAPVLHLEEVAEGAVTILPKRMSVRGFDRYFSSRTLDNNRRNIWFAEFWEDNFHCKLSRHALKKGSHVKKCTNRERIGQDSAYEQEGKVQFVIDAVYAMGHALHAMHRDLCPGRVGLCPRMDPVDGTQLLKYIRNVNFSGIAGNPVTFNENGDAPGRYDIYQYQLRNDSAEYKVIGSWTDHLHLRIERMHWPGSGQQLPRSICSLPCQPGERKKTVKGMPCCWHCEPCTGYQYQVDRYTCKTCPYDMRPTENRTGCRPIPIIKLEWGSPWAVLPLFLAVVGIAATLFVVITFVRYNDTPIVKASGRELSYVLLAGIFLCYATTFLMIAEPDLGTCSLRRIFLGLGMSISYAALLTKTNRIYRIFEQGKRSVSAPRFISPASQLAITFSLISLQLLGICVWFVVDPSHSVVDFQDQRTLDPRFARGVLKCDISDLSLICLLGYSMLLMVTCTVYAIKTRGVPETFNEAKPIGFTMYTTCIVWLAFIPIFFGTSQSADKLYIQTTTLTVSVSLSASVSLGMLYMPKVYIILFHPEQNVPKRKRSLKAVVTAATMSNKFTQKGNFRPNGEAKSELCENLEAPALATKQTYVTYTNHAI

Structure (SMILES) | Ratio EC50 [1] | pEC50 [2] | %max [3] | %max [4] | pEC50 [5] | pEC50 ([5]; read-out: EC50) | Fu [6] | Ratio [7] | Fu [8] | Fu [9]
Cc1ccoc1C(=O)Nc1ccc(N2C(=O)c3cccc(Cl)c3C2=O)nc1 | 31.9 | 5.95 | 44% | 91% | 7.46 | 7.46 |  |  |  | 
Cc1ccoc1C(=O)Nc1ccc(N2C(=O)c3cccc(Cl)c3C2=O)c(C(F)(F)F)c1 | 23.3 | 5.61 | 120% | 105% | 6.98 | 6.97 |  |  |  | 
Cc1ccoc1C(=O)Nc1ccc(N2C(=O)c3ccccc3C2=O)cn1 |  | < 5.00 |  |  | < 5.00 | < 5.00 |  |  |  | 
Cc1ccoc1C(=O)Nc1ccc(N2C(=O)c3cccc(C)c3C2=O)cc1 | 21.7 | 6.46 | 62% | 108% | 7.79 | 7.80 |  |  |  | 
Cc1ccoc1C(=O)Nc1ccc(N2C(=O)c3cccc(C)c3C2=O)nc1 | 52.7 | 5.30 | 100% | 105% | 7.02 | 7.02 |  |  |  | 
Cc1ccoc1C(=O)Nc1cnc(N2C(=O)c3cccc(Cl)c3C2=O)nc1 | 12.2 | 5.60 | 45% | 84% | 6.68 | 6.68 |  |  |  | 
Cc1ccoc1C(=O)Nc1ccc(N2C(=O)c3cccc(F)c3C2=O)c2ccccc12 | 41.1 | 6.09 | 83% | 90% | 7.71 | 7.70 |  |  |  | 
Cc1ccoc1C(=O)Nc1ccc(N2C(=O)c3ccccc3C2=O)cc1 |  | < 5.00 |  | 82% | 7.32 | 7.32 |  |  |  | 
Cc1ccoc1C(=O)Nc1cnc(N2C(=O)c3ccccc3C2=O)nc1 | 1.01 | 5.33 | 23% | 89% | 5.33 | 5.34 |  |  |  | 
Cc1ccoc1C(=O)Nc1ccc(N2C(=O)c3ccccc3C2=O)cc1C(F)(F)F |  | < 5.00 |  |  | < 5.00 | < 5.00 |  |  |  | 
Cc1ccoc1C(=O)Nc1ccc(N2C(=O)c3cccc(C)c3C2=O)c(C(F)(F)F)c1 | 10.8 | 5.24 | 109% | 117% | 6.27 | 6.28 |  |  |  | 
Cc1ccoc1C(=O)Nc1ccc(N2C(=O)c3cccc(C)c3C2=O)c(F)c1 | 11 | 6.54 | 102% | 107% | 7.58 | 7.59 |  |  |  | 
Cc1ccoc1C(=O)Nc1ccc(N2C(=O)c3cccc(Cl)c3C2=O)c2ccccc12 | 22.8 | 6.29 | 102% | 92% | 7.65 | 7.64 |  |  |  | 
Cc1cc(N2C(=O)c3ccccc3C2=O)ccc1NC(=O)c1occc1C | 40.6 | 6.22 | 52% | 90% | 7.82 | 7.82 |  |  |  | 
Cc1ccoc1C(=O)Nc1ccc(N2C(=O)c3cccc(Cl)c3C2=O)c(F)c1 | 9.5 | 6.58 | 93% | 100% | 7.56 | 7.55 |  |  |  | 
Cc1cc(NC(=O)c2occc2C)ccc1N1C(=O)c2ccccc2C1=O | 9.9 | 6.05 | 75% | 105% | 7.05 | 7.05 |  |  |  | 
Cc1ccoc1C(=O)Nc1ccc(N2C(=O)c3ccccc3C2=O)cc1F |  | < 5.00 |  | 84% | 7.90 | 7.89 | < 1% | 1.57 | < 1% | < 1%
Cc1ccoc1C(=O)Nc1ccc(N2C(=O)c3ccccc3C2=O)cc1Cl |  | < 5.00 |  | 68% | 7.54 | 7.54 | < 1% | 0.12 | < 1% | < 1%
Cc1ccoc1C(=O)Nc1ccc(N2C(=O)c3ccccc3C2=O)c(C(F)(F)F)c1 | 54.1 | 5.18 | 86% | 108% | 6.91 | 6.91 |  |  |  | 
Cc1ccoc1C(=O)Nc1ncc(N2C(=O)c3ccccc3C2=O)cn1 |  | < 5.00 |  |  | < 5.00 | < 5.00 |  |  |  | 

Structure (SMILES) | Ratio EC50 [1] | pEC50 [2] | %max [3] | %max [4] | pEC50 [5] | pEC50 ([5]; read-out: EC50) | Fu [6] | Ratio [7] | Fu [8] | Fu [9]
Cc1ccoc1C(=O)Nc1ccc(N2C(=O)c3cccc(F)c3C2=O)c(C(F)(F)F)c1 | 18.5 | 5.54 | 80% | 110% | 6.81 | 6.81 |  |  |  | 
Cc1ccoc1C(=O)Nc1ccc(N2C(=O)c3cccc(F)c3C2=O)c(F)c1 | 19.3 | 6.17 | 78% | 104% | 7.46 | 7.46 |  |  |  | 
COc1cc(NC(=O)c2occc2C)ccc1N1C(=O)c2cccc(Cl)c2C1=O | 36.1 | 6.19 | 103% | 93% | 7.74 | 7.74 |  |  |  | 
Cc1cc(NC(=O)c2occc2C)ccc1N1C(=O)c2cccc(Cl)c2C1=O | 20.5 | 6.00 | 127% | 117% | 7.31 | 7.31 |  |  |  | 
Cc1ccoc1C(=O)Nc1ccc(N2C(=O)c3ccccc3C2=O)nc1 |  | < 5.00 |  | 80% | 6.41 | 6.41 |  |  |  | 
Cc1cc(NC(=O)c2occc2C)ccc1N1C(=O)c2cccc(F)c2C1=O | 22.4 | 5.96 | 86% | 95% | 7.31 | 7.31 |  |  |  | 
Cc1ccoc1C(=O)Nc1ccc(N2C(=O)c3cccc(Cl)c3C2=O)cc1 | 16.7 | 6.32 | 35% | 101% | 7.54 | 7.54 |  |  |  | 
Cc1ccoc1C(=O)Nc1cnc(N2C(=O)c3cccc(C)c3C2=O)nc1 | 5.95 | 5.35 | 104% | 111% | 6.12 | 6.12 |  |  |  | 
Cc1cc(NC(=O)c2occc2C)ccc1N1C(=O)c2cccc(C)c2C1=O | 19.8 | 6.37 | 122% | 100% | 7.67 | 7.68 |  |  |  | 
Cc1ccoc1C(=O)Nc1ccc(N2C(=O)c3cccc(F)c3C2=O)nc1 | 17.9 | 5.45 | 19% | 93% | 6.70 | 6.70 |  |  |  | 
Cc1ccoc1C(=O)Nc1ccc(N2C(=O)c3cccc(C)c3C2=O)c2ccccc12 | 27.3 | 6.37 | 103% | 88% | 7.80 | 7.80 |  |  |  | 
COc1cc(NC(=O)c2occc2C)ccc1N1C(=O)c2ccccc2C1=O | 25.6 | 5.93 | 50% | 96% | 7.33 | 7.34 |  |  |  | 
Cc1ccoc1C(=O)Nc1ccc(N2C(=O)c3ccccc3C2=O)c2ccccc12 | 17.4 | 6.45 | 54% | 99% | 7.69 | 7.70 |  |  |  | 
COc1cc(N2C(=O)c3ccccc3C2=O)ccc1NC(=O)c1occc1C |  | < 5.00 |  | 80% | 6.48 | 6.48 |  |  |  | 
Cc1ccoc1C(=O)Nc1cnc(N2C(=O)c3cccc(F)c3C2=O)nc1 |  | < 5.00 | 24% | 99% | 5.27 | 5.27 |  |  |  | 
Cc1ccoc1C(=O)Nc1ccc(N2C(=O)c3ccccc3C2=O)c(F)c1 | 11.9 | 6.58 | 65% | 101% | 7.65 | 7.66 |  |  |  | 
COc1cc(NC(=O)c2occc2C)ccc1N1C(=O)c2cccc(F)c2C1=O | 13.4 | 5.71 | 73% | 103% | 6.84 | 6.84 |  |  |  | 
Cc1ccoc1C(=O)Nc1ccc(N2C(=O)c3cccc(F)c3C2=O)cc1 | 8.6 | 6.42 | 34% | 96% | 7.36 | 7.36 |  |  |  | 
COc1cc(NC(=O)c2occc2C)ccc1N1C(=O)c2cccc(C)c2C1=O | 18 | 6.05 | 107% | 94% | 7.31 | 7.31 |  |  |  | 

Reference: ChEMBL document CHEMBL3632577, “Lead optimization of the VU0486321 series of mGlu1 PAMs. Part 1: SAR of modifications to the central aryl core” (Bioorg Med Chem Lett, 2015)
